These are literature values, as cited in patent publication US6518254B1, “Ribonucleoside-TRIBOSE” (priority 2002, dated 2003).

Structures are written as SMILES.

The conditions of data set [1]: compared with Ribavirin.
The next data set deals with DNA and RNA viruses. Particulars: in vitro tissue culture; at least 16 DNA and RNA viruses; Science, 177, 705, 1972.

In the case of `NC(=O)c1ncn([C@H]2O[C@@H](CO)[C@H](O)[C@@H]2O)n1` (single isomer, unassigned) [L isomer of Ribavirin], in data set [1], the immuno-modulatory activity entry is “immuno-modulatory activity similar to Ribavirin”.
On to `NC(=O)c1ncn([C@@H]2O[C@H](CO)[C@@H](O)[C@H]2O)n1` [Ribavirin, 1-beta-D-ribofuranosyl-1H-1,2,4-triazole-3-carboxamide], for which the “antiviral activity in tissue culture” value in the data set with DNA and RNA viruses is “active against at least 16 DNA and RNA viruses”.
